Reference: patent US12565501B2, “Muscarinic acetylcholine M1 receptor antagonists” (Contineum Therapeutics, Inc., priority 2019, dated 2026)

target: T1, human M1 receptor (Homo sapiens, UniProt P11229); assay: In vitro functional assay of muscarinic acetylcholine receptor activity (aequorin calcium flux, reversal of EC80 acetylcholine response); type: cell-based; settings: CHO-K1 cells stably expressing human M1 receptor with aequorin; acetylcholine at EC80; calcium flux (luminescence); read-out: M1 IC50
T1 sequence (P11229 1-460): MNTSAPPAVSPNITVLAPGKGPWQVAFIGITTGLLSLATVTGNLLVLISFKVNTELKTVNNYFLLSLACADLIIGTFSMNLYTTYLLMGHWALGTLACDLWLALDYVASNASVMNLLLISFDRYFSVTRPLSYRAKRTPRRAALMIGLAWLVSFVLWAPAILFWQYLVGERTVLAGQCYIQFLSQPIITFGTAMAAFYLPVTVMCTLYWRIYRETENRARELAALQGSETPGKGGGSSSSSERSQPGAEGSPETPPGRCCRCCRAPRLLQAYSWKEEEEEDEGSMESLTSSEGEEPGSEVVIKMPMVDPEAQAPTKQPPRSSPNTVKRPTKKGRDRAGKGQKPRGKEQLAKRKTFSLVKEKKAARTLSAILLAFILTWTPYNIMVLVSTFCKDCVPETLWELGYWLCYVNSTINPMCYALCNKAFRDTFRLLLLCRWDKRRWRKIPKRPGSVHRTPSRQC
How it was run: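 CHO-K1 cells expressing human M1 and aequorin, loaded with 5 μM coelenterazine for 4 h, preincubated with compound 30 min at room temperature, then challenged with EC80 acetylcholine.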

`Cc1noc(C)c1C1(OCC(=O)N2CC3CCC(C2)N3c2ccc(C#N)cn2)CCC1` [Example 265, 6-(3-(2-(1-(3,5-dimethylisoxazol-4-yl)cyclobutoxy)acetyl)-3,8-diazabicyclo[3.2.1]octan-8-yl)nicotinonitrile] and `N#Cc1ccc(N2C3CCC2CN(C(=O)COC2(c4c(F)cnc(Br)c4F)CCC2)C3)nc1` [Example 270, 6-(3-(2-(1-(2-bromo-3,5-difluoropyridin-4-yl)cyclobutoxy)acetyl)-3,8-diazabicyclo[3.2.1]octan-8-yl)nicotinonitrile] cannot be ordered by IC50: less than 10 nM for the first, less than 10 nM for the second.

First: COc1ccccc1[C@H](C)NCC(=O)N1CC2CCC(C1)N2c1ccc(C#N)cn1 [Example 65, 6-(3-(((S)-1-(2-methoxyphenyl)ethyl)glycyl)-3,8-diazabicyclo[3.2.1]octan-8-yl)nicotinonitrile]
Second: CC(c1ccccc1)[S+]([O-])CC(=O)N1CC2CCC(C1)N2c1ccc(C#N)cn1 (racemic) [Example 168, 6-(3-(2-((1-phenylethyl)sulfinyl)acetyl)-3,8-diazabicyclo[3.2.1]octan-8-yl)nicotinonitrile]
The IC50 of the first is lower: less than 10 nM for the first, 1000 to 10000 nM for the second.

First: N#Cc1ccc(N2C3CCC2CN(C(=O)COC2(c4ccccc4F)CCC2)C3)nc1 [Example 236, 6-(3-(2-(1-(2-fluorophenyl)cyclobutoxy)acetyl)-3,8-diazabicyclo[3.2.1]octan-8-yl)nicotinonitrile]
Second: N#Cc1ccc(N2C3CCC2CN(C(=O)COC2(c4ccccc4F)CC2)C3)nc1 [Example 207, 6-(3-(2-(1-(2-fluorophenyl)cyclopropoxy)acetyl)-3,8-diazabicyclo[3.2.1]octan-8-yl)nicotinonitrile]
The IC50 of the first is higher: 100 to 1000 nM for the first, 10 to 100 nM for the second. The second is the more potent here.

`N#Cc1ccc(N2[C@@H]3CC[C@H]2CN(C(=O)CCNC2(c4ccc(F)cc4F)CC2)C3)nc1` [Example 26, 6-(3-(3-((1-(2,4-difluorophenyl)cyclopropyl)amino)propanoyl)-3,8-diazabicyclo[3.2.1]octan-8-yl)nicotinonitrile] and `N#Cc1ccc(N2[C@@H]3CC[C@H]2CN(C(=O)CCNC2(c4cc(F)cc(F)c4)CC2)C3)nc1` [Example 33, 6-(3-(3-((1-(3,5-difluorophenyl)cyclopropyl)amino)propanoyl)-3,8-diazabicyclo[3.2.1]octan-8-yl)nicotinonitrile] fall in the same range of IC50: 10 to 100 nM for the first, 10 to 100 nM for the second.

`N#Cc1ccc(N2C3CCC2CN(C(=O)CCC(F)(F)c2cccc4ncccc24)C3)nc1` [Example 122, 6-(3-(4,4-difluoro-4-(quinolin-5-yl)butanoyl)-3,8-diazabicyclo[3.2.1]octan-8-yl)nicotinonitrile] and `COc1cncc(C(F)(F)CCC(=O)N2CC3CCC(C2)N3c2ccc(C#N)cn2)c1` [Example 160, 6-(3-(4,4-difluoro-4-(5-methoxypyridin-3-yl)butanoyl)-3,8-diazabicyclo[3.2.1]octan-8-yl)nicotinonitrile] cannot be ordered by IC50: less than 10 nM for the first, less than 10 nM for the second.

Compared with `N#Cc1ccc(N2[C@@H]3C[C@H]2CN(C(=O)COC2(c4ccc(F)c(F)c4)CC2)C3)nc1` [Example 284, 6-(3-(2-(1-(3,4-difluorophenyl)cyclopropoxy)acetyl)-3,6-diazabicyclo[3.1.1]heptan-6-yl)nicotinonitrile], `N#Cc1ccc(N2C3CCC2CN(C(=O)COC2(c4ccc(F)c(Br)c4)CC2)C3)nc1` [Example 215, 6-(3-(2-(1-(3-bromo-4-fluorophenyl)cyclopropoxy)acetyl)-3,8-diazabicyclo[3.2.1]octan-8-yl)nicotinonitrile] is lower in IC50: 1000 to 10000 nM for the first, 10 to 100 nM for the second. The second is the more potent here.

`Cn1ccc(=O)c(C2(OCC(=O)N3CC4CCC(C3)N4c3ccc(C#N)cn3)CC2)c1` [Example 302, 6-(3-(2-(1-(1-methyl-4-oxo-1,4-dihydropyridin-3-yl)cyclopropoxy)acetyl)-3,8-diazabicyclo[3.2.1]octan-8-yl)nicotinonitrile] and `N#Cc1ccc(N2C3CCC2CN(C(=O)COC2(c4ccccn4)CCC2)C3)nc1` [Example 246, 6-(3-(2-(1-(pyridin-2-yl)cyclobutoxy)acetyl)-3,8-diazabicyclo[3.2.1]octan-8-yl)nicotinonitrile] cannot be ordered by IC50: greater than 1000 nM for the first, 1000 to 10000 nM for the second.

`N#Cc1ccc(N2[C@@H]3CC[C@H]2CN(C(=O)CCNC2(c4ccc(F)cc4)CC2)C3)nc1` [Example 5, 6-(3-(3-((1-(4-fluorophenyl)cyclopropyl)amino)propanoyl)-3,8-diazabicyclo[3.2.1]octan-8-yl)nicotinonitrile] and `N#Cc1ccc(N2C3CCC2CN(C(=O)CNC2(c4cc(F)cc(F)c4)CC2)C3)nc1` [Example 107, 6-(3-((1-(3,5-difluorophenyl)cyclopropyl)glycyl)-3,8-diazabicyclo[3.2.1]octan-8-yl)nicotinonitrile] fall in the same range of IC50: 10 to 100 nM for the first, 10 to 100 nM for the second.

`COc1cccc(C2(OCC(=O)N3CC4CCC(C3)N4c3ccc(C#N)cn3)COC2)c1` [Example 242, (3-(2-((3-(3-methoxyphenyl)oxetan-3-yl)oxy)acetyl)-3,8-diazabicyclo[3.2.1]octan-8-yl)nicotinonitrile] and `COc1cc(C2(OCC(=O)N3CC4CCC(C3)N4c3ccc(C#N)cn3)CCCC2)ccn1` [Example 267, 6-(3-(2-((1-(2-methoxypyridin-4-yl)cyclopentyl)oxy)acetyl)-3,8-diazabicyclo[3.2.1]octan-8-yl)nicotinonitrile] fall in the same range of IC50: 10 to 100 nM for the first, 10 to 100 nM for the second.

Compared with `CCC(OCC(=O)N1CC2CCC(C1)N2c1ccc(C#N)cn1)c1ccc(F)c(Br)c1` (racemic) [Example 216, 6-(3-(2-(1-(3-bromo-4-fluorophenyl)propoxy)acetyl)-3,8-diazabicyclo[3.2.1]octan-8-yl)nicotinonitrile], `COc1ccc2c(c1)C(NCC(=O)N1CC3CCC(C1)N3c1ccc(C#N)cn1)CC2` (racemic) [Example 90, 6-(3-((6-methoxy-2,3-dihydro-1H-inden-1-yl)glycyl)-3,8-diazabicyclo[3.2.1]octan-8-yl)nicotinonitrile] is higher in IC50: less than 10 nM for the first, 100 to 1000 nM for the second.

Compared with `N#Cc1ccc(N2C3CCC2CN(C(=O)COC2(c4cncc(F)c4)CCC2)C3)nc1` [Example 251, 6-(3-(2-(1-(5-fluoropyridin-3-yl)cyclobutoxy)acetyl)-3,8-diazabicyclo[3.2.1]octan-8-yl)nicotinonitrile], `CCOc1cncc(C2(OCC(=O)N3CC4CCC(C3)N4c3ccc(C#N)cn3)CCC2)c1` [Example 259, 6-(3-(2-(1-(5-ethoxypyridin-3-yl)cyclobutoxy)acetyl)-3,8-diazabicyclo[3.2.1]octan-8-yl)nicotinonitrile] is lower in IC50: 100 to 1000 nM for the first, 10 to 100 nM for the second.

`COc1cc(C2(OCC(=O)N3CC4CCC(C3)N4c3ccc(C#N)cn3)CCC2)cnn1` [Example 275, 6-(3-(2-(1-(6-methoxypyridazin-4-yl)cyclobutoxy)acetyl)-3,8-diazabicyclo[3.2.1]octan-8-yl)nicotinonitrile] and `COc1cc(C2(NCC(=O)N3CC4CCC(C3)N4c3ccc(C#N)cn3)CC2)ccn1` [Example 73, 6-(3-((1-(2-methoxypyridin-4-yl)cyclopropyl)glycyl)-3,8-diazabicyclo[3.2.1]octan-8-yl)nicotinonitrile] fall in the same range of IC50: 10 to 100 nM for the first, 10 to 100 nM for the second.

Compound `CC(c1ccccc1)S(=O)(=O)CC(=O)N1CC2CCC(C1)N2c1ccc(C#N)cn1` (racemic) [Example 172, 6-(3-(2-((1-phenylethyl)sulfonyl)acetyl)-3,8-diazabicyclo[3.2.1]octan-8-yl)nicotinonitrile] has an IC50 greater than 1000 nM.
